Laboratory results published in US4845079A, “Peptidylaminodiols” (priority 1988, dated 1989).
Counter-ions that a name gives are not always drawn.

target: T1, human renal renin (Homo sapiens, UniProt P00797); assay: in vitro inhibition of human renal renin (angiotensin I formed measured by radioimmunoassay); type: biochemical; conditions: human renal renin with renin substrate (human angiotensinogen), 37° C., pH 6.0
T1 construct: with human renal renin, free from acid proteolytic activity; from tissue; host or cells: human kidney (concluded from the word 'renal')
T1 sequence (P00797 67-406): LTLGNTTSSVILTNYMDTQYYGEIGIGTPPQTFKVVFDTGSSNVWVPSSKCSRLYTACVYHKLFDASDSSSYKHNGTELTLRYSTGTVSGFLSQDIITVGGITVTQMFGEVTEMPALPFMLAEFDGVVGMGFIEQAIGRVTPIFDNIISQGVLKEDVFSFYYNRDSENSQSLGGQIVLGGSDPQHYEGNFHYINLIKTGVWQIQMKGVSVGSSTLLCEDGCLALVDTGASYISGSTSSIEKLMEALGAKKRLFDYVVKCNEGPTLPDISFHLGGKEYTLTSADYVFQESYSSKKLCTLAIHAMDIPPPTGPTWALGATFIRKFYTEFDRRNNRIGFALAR

In order of falling IC50:
1. C[C@H](NC(=O)[C@H](Cc1ccccc1)NC(=O)OC(C)(C)C)C(=O)N[C@@H](CC1CCCCC1)C(O)CO (stereo partly drawn) [Example 3, Boc-Phe-Ala Amide of 3(S)-Amino-4-cyclohexyl-1,2(R,S)-dihydroxybutane]  4000 nM
2. CCOC(=O)N[C@@H](Cc1ccccc1)C(=O)N(C)[C@@H](Cc1c[nH]cn1)C(=O)N[C@@H](CC1CCCCC1)[C@@H](O)[C@@H](O)CC(C)C [Example 39, Ethoxycarbonyl-Phe-MeHis Amide of 2(S)-Amino-1-cyclohexyl-3(R),4(S)-dihydroxy-6-methylheptane]  2 nM
3. CC(C)C[C@H](O)[C@H](O)[C@H](CC1CCCCC1)NC(=O)[C@H](Cc1cnc[nH]1)NC(=O)[C@H](Cc1ccccc1)NC(=O)C(C)(C)CNC(=O)OCc1ccccc1 [Example 81]  0.6 nM
4. CC(C)C[C@H](O)[C@H](O)[C@H](CC1CCCCC1)NC(=O)[C@H](Cc1c[nH]cn1)NC(=O)[C@H](Cc1ccccc1)NC(=O)C(C)(C)CN [Example 82, [(α, α-Di-Me)-β-Ala]-Phe-His Amide of 2(S)-Amino-1-cyclohexyl-3(R),4(S)-dihydroxy-6-methylheptane Bis acetic acid salt]  0.6 nM
